Measured values published in patent US8470888B2, “Botryllamides and method of inhibiting PGP in a mammal afflicted with cancer” (The United States of America, as represented by the …, priority 2008, dated 2013).
pIC50: −log10 of the molar value.

Columns and labels:
Assay type in all cases: cell-based
[1] = target: ABCG2 (Homo sapiens (Human), UniProt Q9UNQ0); assay: Pheophorbide a accumulation assay for ABCG2 inhibitors in NCI-H460/MX20 cells; details: for pIC50: 1 μM pheophorbide a, 18 h; for Pheophorbide a max activity, % of FTC response: normalized to 10 μM FTC
ABCG2, sequence (Q9UNQ0 whole entry): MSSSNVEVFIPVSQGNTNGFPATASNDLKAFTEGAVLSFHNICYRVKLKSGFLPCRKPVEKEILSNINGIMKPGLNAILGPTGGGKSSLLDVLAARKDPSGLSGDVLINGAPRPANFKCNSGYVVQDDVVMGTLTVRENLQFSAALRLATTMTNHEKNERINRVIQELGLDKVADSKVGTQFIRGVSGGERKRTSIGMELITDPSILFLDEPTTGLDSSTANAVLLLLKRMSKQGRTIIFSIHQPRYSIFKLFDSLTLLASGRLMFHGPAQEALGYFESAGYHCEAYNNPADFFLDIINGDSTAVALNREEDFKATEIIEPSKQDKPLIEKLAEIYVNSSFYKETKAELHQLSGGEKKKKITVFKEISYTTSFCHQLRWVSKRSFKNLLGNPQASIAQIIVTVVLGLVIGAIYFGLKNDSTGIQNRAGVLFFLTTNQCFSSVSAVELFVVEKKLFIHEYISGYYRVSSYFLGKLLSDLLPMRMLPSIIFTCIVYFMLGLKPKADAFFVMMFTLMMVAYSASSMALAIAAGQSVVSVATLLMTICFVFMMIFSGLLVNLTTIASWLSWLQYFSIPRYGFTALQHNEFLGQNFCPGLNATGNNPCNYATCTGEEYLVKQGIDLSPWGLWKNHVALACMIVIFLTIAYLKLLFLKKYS
Protocol: Accumulation of pheophorbide a, a fluorescent ABCG2 substrate (Jonker et al., Proc. Natl. Acad. Sci. USA, 99: 15649-54 (2002) and Robey et al., Cancer Res., 64: 1242-6 (2004)), formed the basis of the assay for inhibitors of ABCG2 activity (Henrich et al., J. Biomol. Screen, 11: 176-83 (2006)). Briefly, NCI-H460/MX20 cells are transferred to black wall, clear bottom 384-well polylysine-coated assay plates (Corning, Corning, N.Y.) and allowed to attach for several hours. Pheophorbide a (1 μM final concentration) is added immediately followed by compounds or vehicle (DMSO/PBS) control and incubated an additional 18 h. After removal of medium and washing with PBS containing Ca^2+ and Mg^2+, fluorescence intensity is read on a Tecan Safire fluorescence plate reader in bottom read mode, 395 nm excitation, and 670 nm emission. Each plate has control wells containing 10 μM (final concentration) FTC. Data are normalized to FTC and reported as % of FTC fluorescence.

[2] = target: Pgp (Homo sapiens (Human), UniProt P08183); assay: Flow assay, rhodamine 123 efflux in transfected HEK293 cells expressing Pgp; details: 10 μM compound; 0.5 μg/ml rhodamine 123
Pgp, sequence (P08183 whole entry): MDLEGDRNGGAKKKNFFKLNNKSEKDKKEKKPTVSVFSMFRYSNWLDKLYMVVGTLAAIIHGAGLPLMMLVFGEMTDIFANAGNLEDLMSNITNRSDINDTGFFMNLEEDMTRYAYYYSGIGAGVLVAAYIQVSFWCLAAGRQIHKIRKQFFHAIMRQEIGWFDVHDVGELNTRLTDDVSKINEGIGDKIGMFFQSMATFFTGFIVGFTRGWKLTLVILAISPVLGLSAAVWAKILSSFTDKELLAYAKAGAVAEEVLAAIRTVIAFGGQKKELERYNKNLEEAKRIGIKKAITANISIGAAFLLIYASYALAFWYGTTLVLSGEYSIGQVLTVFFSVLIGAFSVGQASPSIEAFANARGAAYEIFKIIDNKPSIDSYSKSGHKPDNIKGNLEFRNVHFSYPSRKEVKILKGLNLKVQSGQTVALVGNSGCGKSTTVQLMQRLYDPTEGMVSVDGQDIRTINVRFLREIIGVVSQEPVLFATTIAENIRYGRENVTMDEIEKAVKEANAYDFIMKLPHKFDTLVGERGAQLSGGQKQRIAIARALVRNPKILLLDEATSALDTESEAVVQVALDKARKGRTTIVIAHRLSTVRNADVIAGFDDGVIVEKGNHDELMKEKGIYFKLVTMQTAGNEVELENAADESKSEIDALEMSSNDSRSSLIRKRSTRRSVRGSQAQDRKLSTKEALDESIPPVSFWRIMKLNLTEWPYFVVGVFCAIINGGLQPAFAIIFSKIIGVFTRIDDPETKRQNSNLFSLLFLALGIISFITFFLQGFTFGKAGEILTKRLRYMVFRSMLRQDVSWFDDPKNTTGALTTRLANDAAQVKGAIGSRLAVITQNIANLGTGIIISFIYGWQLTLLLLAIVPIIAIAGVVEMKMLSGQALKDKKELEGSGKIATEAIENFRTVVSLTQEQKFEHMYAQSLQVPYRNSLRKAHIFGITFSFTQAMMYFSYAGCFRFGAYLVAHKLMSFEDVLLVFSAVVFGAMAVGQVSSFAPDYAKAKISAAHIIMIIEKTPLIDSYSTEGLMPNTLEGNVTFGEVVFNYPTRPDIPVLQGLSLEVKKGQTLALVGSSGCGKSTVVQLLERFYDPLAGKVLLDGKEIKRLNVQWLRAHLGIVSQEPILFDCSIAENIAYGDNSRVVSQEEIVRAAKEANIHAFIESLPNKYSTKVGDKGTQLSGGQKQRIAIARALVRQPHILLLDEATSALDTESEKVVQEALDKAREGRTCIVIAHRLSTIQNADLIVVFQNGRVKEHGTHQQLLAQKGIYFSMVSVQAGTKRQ

[3] = target: MRP1 (Homo sapiens (Human), UniProt P33527); assay: Flow assay, calcein efflux in transfected HEK293 cells expressing MRP1; details: 10 μM compound; 200 nM calcein AM
MRP1, sequence (P33527 whole entry): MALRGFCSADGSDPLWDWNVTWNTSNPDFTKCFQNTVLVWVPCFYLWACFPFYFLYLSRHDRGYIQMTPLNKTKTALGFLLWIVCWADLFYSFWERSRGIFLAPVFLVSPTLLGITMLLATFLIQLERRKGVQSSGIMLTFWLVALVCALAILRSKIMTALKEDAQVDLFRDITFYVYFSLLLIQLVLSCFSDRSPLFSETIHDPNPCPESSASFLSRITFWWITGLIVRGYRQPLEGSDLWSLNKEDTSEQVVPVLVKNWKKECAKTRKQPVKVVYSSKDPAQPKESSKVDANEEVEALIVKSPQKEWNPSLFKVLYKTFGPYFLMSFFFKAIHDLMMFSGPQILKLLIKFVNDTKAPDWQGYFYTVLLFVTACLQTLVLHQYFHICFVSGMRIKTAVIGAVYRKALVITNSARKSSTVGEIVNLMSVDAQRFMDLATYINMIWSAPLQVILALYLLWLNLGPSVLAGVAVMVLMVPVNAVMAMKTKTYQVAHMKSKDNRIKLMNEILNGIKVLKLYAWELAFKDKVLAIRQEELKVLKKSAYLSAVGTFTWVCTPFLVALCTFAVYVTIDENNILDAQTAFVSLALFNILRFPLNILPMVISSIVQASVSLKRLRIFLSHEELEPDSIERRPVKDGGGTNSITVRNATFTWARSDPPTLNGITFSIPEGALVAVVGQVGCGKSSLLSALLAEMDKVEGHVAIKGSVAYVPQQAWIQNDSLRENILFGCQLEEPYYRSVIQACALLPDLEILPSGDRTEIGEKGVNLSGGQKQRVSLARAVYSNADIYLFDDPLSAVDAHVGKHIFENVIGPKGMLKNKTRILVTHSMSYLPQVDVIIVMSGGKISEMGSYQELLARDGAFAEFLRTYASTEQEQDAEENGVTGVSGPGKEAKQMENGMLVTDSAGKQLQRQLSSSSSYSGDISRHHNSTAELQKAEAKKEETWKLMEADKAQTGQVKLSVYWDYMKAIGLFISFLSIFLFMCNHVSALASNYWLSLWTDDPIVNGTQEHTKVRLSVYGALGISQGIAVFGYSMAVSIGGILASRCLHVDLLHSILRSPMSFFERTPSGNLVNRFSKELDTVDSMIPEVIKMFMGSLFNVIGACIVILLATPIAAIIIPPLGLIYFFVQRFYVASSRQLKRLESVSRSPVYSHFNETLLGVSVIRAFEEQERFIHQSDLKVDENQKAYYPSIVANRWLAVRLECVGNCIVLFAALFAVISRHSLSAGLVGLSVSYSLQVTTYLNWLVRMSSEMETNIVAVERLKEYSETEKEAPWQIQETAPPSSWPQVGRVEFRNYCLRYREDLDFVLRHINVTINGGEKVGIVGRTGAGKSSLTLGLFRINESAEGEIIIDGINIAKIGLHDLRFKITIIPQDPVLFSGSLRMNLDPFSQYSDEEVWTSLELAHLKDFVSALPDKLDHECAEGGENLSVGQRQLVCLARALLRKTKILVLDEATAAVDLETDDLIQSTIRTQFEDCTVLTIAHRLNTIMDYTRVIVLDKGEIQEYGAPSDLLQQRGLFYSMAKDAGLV

Row | Molecule | pIC50 [1] | Pheophorbide a max activity, % of FTC response ([1]; 80 μM compound) [%] | Flow-Pgp, Fold Increase (Pgp inhibition, rhodamine efflux: treated/control ratio) [2] [fold] | Flow-MRP1, Fold Increase (MRP1 inhibition, calcein efflux: treated/control ratio) [3] [fold] | Pheophorbide a max activity, % of FTC response ([1]; 40 μM compound)
1 | CO/C(=C\c1ccc(O)cc1)C(=O)N/C=C/c1ccc(OC)cc1 [Botryllamide I, botryllamide I] | 4.38 | 71.3 | 0.8 | 3.14 | 
2 | botryllamide J | 4.57 | 70.5 | 0.58 | 2.54 | 
3 | CO/C(=C\c1ccc(O)cc1)C(=O)N/C=C/c1cc(Br)c(O)c(Br)c1 [Botryllamide G, botryllamide G] | 5.16 |  | 0.68 | 2.1 | 123.7 (40 μM) %
4 | CO/C(=C\c1ccc(O)cc1)C(=O)N/C=C/c1ccc(OC)cc1 [Botryllamide E, botryllamide E] | 4.63 | 68.8 | 0.76 | 1.96 | 
5 | botryllamide B | 4.95 |  | 1.95 | 3.26 | 84.3 (40 μM) %
6 | CO/C(=C\c1ccc(O)cc1)C(=O)N/C=C/c1cc(Br)c(OC)c(Br)c1 [Botryllamide A, botryllamide A] | 4.48 | 89.7 | 17.63 | 4.5 | 
7 | CO/C(=C\c1ccc(O)cc1)C(=O)N/C=C/c1ccc(OC)c(Br)c1 [Botryllamide D, botryllamide D] | 4.79 | 63.5 | 1.49 | 2.39 | 
8 | CO/C(=C\c1ccc(O)cc1)C(=O)N/C=C/c1ccc(O)cc1 [Botryllamide F, botryllamide F] | 4.78 | 81.0 | 0.59 | 3.33 | 
